The values below come from patent publication US12648957B2, “Compositions and methods for the treatment of SWI-SNF mutant tumors” (The Children's Hospital of Philadelphia, priority 2019, dated 2026).

The subject of series [1] is rhabdoid tumor cell lines (BT12 AT/RT, CHLA266 AT/RT, and G401 RTK). Nature of the series: Cell proliferation assay (MTS CellTiter96), rhabdoid tumor vs Ewing sarcoma cells. Format: cell-based. Conditions: three rhabdoid tumor cell lines vs Ewing sarcoma cells, FIG. 1C. Here is the method: (§1) Cell Culture. BT12 and CHLA266 cell lines were obtained from the Children's Oncology Group. G401 cell line was obtained from ATCC. TC32 cells were obtained from Dr. Lee Helman (Children's Hospital of Los Angeles). U2OS cells were obtained from Dr. Chand Khanna (Ethos Veterinary Health LLC). All cell lines were grown in RPMI-1640 medium (Invitrogen) supplemented with 10% fetal bovine serum (Gemini Bio-Products), 2 mM L-glutamine (Invitrogen), 100 U/mL penicillin and 100 μg/mL streptomycin (Invitrogen). Cell lines were maintained at less than 80% confluency at 37° C. and 5% CO2 and confirmed to be mycoplasma negative every 6-months.
(§2) Cell Proliferation Assays. IC50s were calculated with non-linear regression (Graphpad Prism) as the average of three independent experiments performed in duplicate. Cell viability was measured using MTS assay CellTiter96 (Promega) plotted against a standard curve and was confirmed with real-time proliferation assays on the Incucyte Zoom, as previously described (Harlow et al., 2019).

Series [2] relates to BT12 and G401 rhabdoid tumor cells. The series is described as follows: Dose response curves in BT12 and G401 cells. Format: cell-based. As to conditions: for sensitivity of rhabdoid tumor cells (dose response curve): BT12 and G401. Here is the method:
as §1, §2

The conditions of series [3]: multiple species; cited from earlier work.
In series [4] the test system is G401 rhabdoid tumor xenografts. Nature of the series: Intramuscular G401 rhabdoid tumor xenograft model. As to conditions: for median survival: vehicle 28-days.
Procedure: Xenograft Experiments. 5×10^6 G401-luc cells were injected intramuscularly into the gastrocnemius of 8 to 10-week-old female homozygous nude mice (Crl; Nu-Foxn1^Nu). […] Pumps were implanted intraperitoneally and removed with 7-days after end of drug delivery. […] Investigators were not blinded to the treatment groups.
Bioluminescence Imaging. Mice were administered Firefly D-Luciferin (GoldBio, 1.5 mg/mouse) with intraperitoneal injections. After injection anesthesia was administered throughout the image acquisition (3% isoflurane at 1 L/min 02 flow). Bioluminescent images were taken 10 minutes after injection using the AMI-1000 imaging system.
Tissue Staining and Immunohistochemistry. Tissues were decalcified in 10% EDTA (pH 8.0) for 7-days prior to paraffin embedding. Paraffin embedded tissue was sectioned into 5-micrometer sections and mounted on colormark plus charged slides. Hematoxylin and Eosin staining was performed on the Ventana Symphony instrument. For immunohistochemistry, antigen retrieval was performed on the PT Link platform on the Dako Autostainer Plus instrument. Following blocking, tissue was incubated with H3K27me3 antibody (Abcam 1:250) or Cleaved Caspase-3 (Cell Signaling Antibody 1:250), washed and then secondary antibody (Envision+System HRP labelled polymer Anti-Rabbit, Dako 1:100) and finished with Dako Liquid DAB+Substrate Chromogen System.
The subject of series [5] is BT12 and G401 rhabdoid tumor cells. The series is described as follows: Live cell imaging proliferation and phenotype (Incucyte Zoom). Format: cell-based. Conditions: BT12, EC-8042 200 nM compared with mithramycin 100 nM. How it is done: as §2
Another series deals with SP1. The series is described as follows: SP1 expression by quantitative PCR and western blot. As to conditions: BT12 and G401 cells, tolfenamic acid concentrations of FIG. 3G.
The mark [6] stands for this setting: EC-8042 3-day pump, day 4, vs vehicle.

Procedure for SP1: RNA was subsequently collected using the RNeasy kit and quantified. The RNA was reverse transcribed with the high capacity reverse transcriptase kit (Life Technologies) at 25° C. for 10 minutes, 37° C. for 120 minutes, and 85° C. for 5 minutes. 100 ng cDNA was PCR amplified with 2×SYBR green at 95° C. for 10 min, 95° C. for 15 s, 55° C. for 15s, and 72° C. for 1 min, for 40 cycles. Expression from three independent experiments performed in duplicate was calculated with standard ddCT methods relative to GAPDH and solvent controls.
Cellular fractionation was performed to separate cytoplasmic and nuclear fractions. Fractionation lysates were lysed with cytoplasmic lysis buffer (25 mM HEPES pH 8.0, 50 mM KCl, and 05% NP-40) supplemented with RNAse (Thermo Fisher Scientific) and protease inhibitors (Sigma-Aldrich) for 15-minutes on ice vortexing every 5-minutes. The nuclei were pelleted at 1500× g for 5 minutes and the cytoplasmic fraction was isolated. The nuclei pellet was lysed with 4% LDS lysis buffer. Following dilution of detergent, protein was quantified with the BCA colorimetric assay (Thermo-Scientific). […] Transfer was run at 20 V and 4° C. overnight. The membranes were blocked with 5% milk in TBS-T (1×TBS, 0.1% Tween-20) and probed with Abcam (H3K27me3), EMD Millipore (SP1), and Cell Signaling (SMARCC1, SMARCE1, H3) antibodies.

In the case of `COc1cccc2c1C(=O)c1c(O)c3c(c(O)c1C2=O)C[C@@](O)(C(=O)CO)C[C@@H]3O[C@H]1C[C@H](N)[C@H](O)[C@H](C)O1` [doxorubicin], the “fold less sensitive than Ewing sarcoma cells” value in series [1] is given as 4 fold.

With `CO[C@@H]([C@@H]1Cc2cc3cc(O[C@H]4CC(O[C@H]5CC(O)[C@H](O)C(C)O5)[C@H](O)C(C)O4)c(C)c(O)c3c(O)c2C(=O)[C@H]1O[C@H]1CC(O[C@H]2CC(O[C@H]3CC(O)[C@H](O)C(C)O3)[C@@H](O)C(C)O2)[C@H](O)C(C)O1)[C@@H](O)C(C)=O` (stereo partly drawn) [EC-8042, demycarosyl-3D-β-D-ditioxosyl-mithramycin SK], the “sensitivity of rhabdoid tumor cells (dose response curve)” value in series [2] is “sensitive”. Moreover, in series [2] (in vitro, FIGS. S5A-B), the “concentration at which rhabdoid tumor is sensitive, relative to mithramycin” value is “slightly higher concentration as mithramycin”. For the same molecule, the “toxicity relative to mithramycin” value in series [3] was “more than 10 times”. Moreover, the body weight result in series [4] (EC-8042 3-day and 7-day pump, resolved with cessation of drug infusion) is given as “minimal transient weight loss”. For the same molecule, the “differentiation in xenograft tumors (H&E)” value in series [4] (EC-8042 3-day or 7-day pump) is “striking evidence of mesenchymal differentiation”. Also, the median survival in series [4] (EC-8042 3-day pump (30 mg/kg)) is 68 days. In series [4] (EC-8042 3-day pump cohort), the “mice with complete cures” value was “Three”. Moreover, in series [4] (setting [6]), the “H3K27ac staining (IHC)” value is listed as “decrease”, the “H3K27me3 staining (IHC)” value is “significantly increase in positive staining”, the “cleaved caspase 3 (CC3) staining (IHC)” value is “significantly increase in positive staining” and the “human mitochondrial staining (IHC)” value was “decrease”. Also, the median survival in series [4] (EC-8042 7-day pump (50 mg/kg)) amounted to 70 days. Further, the “calcification of tumor tissue (micro-CT)” value in series [4] (EC-8042, 7-days after treatment, compared with vehicle) was “enhances the calcification and mineralization”. Moreover, in series [4] (EC-8042, most mice), the “duration of response post end of infusion” value is ~6 weeks. The “time after treatment without tumor recurrence in cured mice” value in series [4] (EC-8042, several mice) turned out to be 140 days. Besides, in series [4] (EC-8042, subset of mice, end of infusion), the “bioluminescent imaging of tumor” value is on record as “almost no detectable tumor”. Further, the “time to tumor recurrence after treatment end” value in series [4] (EC-8042 continuous infusion) was “approximately 40 days”. The tumor response entry in series [4] (EC-8042 continuous infusion, 3-days (30 mg/kg) or 7-days (50 mg/kg), all mice in both cohorts) is reported as “striking regressions”. Also, the cell phenotype entry in series [5] is “lipid accumulation and a flattened cell phenotype”.

Regarding `COc1cc([C@@H]2c3cc4c(cc3[C@@H](O[C@@H]3O[C@@H]5CO[C@@H](C)O[C@H]5[C@H](O)[C@H]3O)[C@H]3COC(=O)[C@H]23)OCO4)cc(OC)c1O` [etoposide], in series [1], the “fold less sensitive than Ewing sarcoma cells” value came to 70 fold.

In the case of `Cc1c(Cl)cccc1Nc1ccccc1C(=O)O` [tolfenamic acid, reference compound], the “sensitivity of rhabdoid tumor cells (dose response curve)” value in series [2] is reported as “not sensitive”. Also, the “SP1 expression (western blot)” value with SP1 is reported as “loss of SP1 expression”.

On to `CCc1c2c(nc3ccc(O)cc13)-c1cc3c(c(=O)n1C2)COC(=O)[C@]3(O)CC` [SN38], for which the “fold less sensitive than Ewing sarcoma cells” value in series [1] is recorded as 100 fold.
